Where a SMILES comes first, the peptide text is derived from it. Bridges are numbered along the chain shown (N, C = ends). Roman numbers before positions name the chains, in order. [ ]: non-standard residue; d: D form. βAla = NCCC(=O)O
Columns and labels:
[1] = system: P. aeruginosa AV65; assay type: cell-based, Pseudomonas aeruginosa; conditions: AV65, 24 h
[2] = system: P. aeruginosa EF-OBG6-1; assay type: cell-based, Pseudomonas aeruginosa; conditions: EF-OBG6-1, 24 h
[3] = system: P. aeruginosa PAO-1; assay type: cell-based, Pseudomonas aeruginosa; conditions: PAO-1, 24 h
[4] = system: P. aeruginosa SC-BGr12-02; assay type: cell-based, Pseudomonas aeruginosa; conditions: SC-BGr12-02, 24 h
[5] = system: P. aeruginosa SC-GMm03-05; assay type: cell-based, Pseudomonas aeruginosa; conditions: SC-GMm03-05, 24 h
[6] = system: P. aeruginosa SC-MDm03-02; assay type: cell-based, Pseudomonas aeruginosa; conditions: SC-MDm03-02, 24 h
[7] = system: P. aeruginosa SC-MDr03-06; assay type: cell-based, Pseudomonas aeruginosa; conditions: SC-MDr03-06, 24 h
[8] = system: P. aeruginosa VR-143/97; assay type: cell-based, Pseudomonas aeruginosa; conditions: VR-143/97, 24 h
[9] = system: A. baumannii MR157; assay type: cell-based, Acinetobacter baumannii; conditions: MR157, 24 h
Method: (§1) M33, […], M35 and M36 MICs were determined against strains of several bacterial species, including Gram-negative pathogens and also Staphylococcus aureus (Table 1). MICs in the micromolar range were observed against several Gram-negatives including Pseudomonas aeruginosa, Acinetobacter baumannii and most Enterobacteriaceae, with the exception of Proteus mirabilis, Serratia marcescens and Burkholderia cepacia. Activity of peptides was retained against MDR strains with various resistance mechanisms (such as extended-spectrum beta-lactamases and carbapenemases), including MDR P. aeruginosa strains from CF patients. Antimicrobial profile of M33, […] and potency were overall similar to those of polymyxin B, although M33, M34, M35 and M36 also appeared to have some activity against S. aureus (Table 1).

[10] = system: A. baumannii RUH 875; assay type: cell-based, Acinetobacter baumannii; conditions: RUH 875, 24 h
Method: as §1

Measured: MIC

CC[C@H](C)[C@H](NC(=O)[C@H](CCCCN)NC(=O)[C@@H](N)CCCCN)C(=O)N[C@@H](CCCNC(=N)N)C(=O)N[C@H](C(=O)N[C@@H](CCCNC(=N)N)C(=O)N[C@@H](CC(C)C)C(=O)N[C@@H](CO)C(=O)N[C@@H](C)C(=O)NCCCC[C@H](NC(=O)[C@H](C)NC(=O)[C@H](CO)NC(=O)[C@H](CC(C)C)NC(=O)[C@H](CCCNC(=N)N)NC(=O)[C@@H](NC(=O)[C@H](CCCNC(=N)N)NC(=O)[C@@H](NC(=O)[C@H](CCCCN)NC(=O)[C@@H](N)CCCCN)[C@@H](C)CC)C(C)C)C(=O)NCCCC[C@H](NC(=O)[C@H](CCCCNC(=O)[C@H](C)NC(=O)[C@H](CO)NC(=O)[C@H](CC(C)C)NC(=O)[C@H](CCCNC(=N)N)NC(=O)[C@@H](NC(=O)[C@H](CCCNC(=N)N)NC(=O)[C@@H](NC(=O)[C@H](CCCCN)NC(=O)[C@@H](N)CCCCN)[C@@H](C)CC)C(C)C)NC(=O)[C@H](C)NC(=O)[C@H](CO)NC(=O)[C@H](CC(C)C)NC(=O)[C@H](CCCNC(=N)N)NC(=O)[C@@H](NC(=O)[C@H](CCCNC(=N)N)NC(=O)[C@@H](NC(=O)[C@H](CCCCN)NC(=O)[C@@H](N)CCCCN)[C@@H](C)CC)C(C)C)C(=O)NCCC(=O)O)C(C)C [M33, KKIRVRLSA] (I: H-KKIRVRLSAKK[βAla]-OH / II: H-KKIRVRLSAK / III: H-KKIRVRLSA / IV: H-KKIRVRLSA; amide I:10-IV:C, I:11-II:C, II:10-III:C; N-terminus assumed)
3 µM: [6] | [7] | [9] | [10]
0.7 µM: [2]
1.5 µM: all other assays above

From patent publication US8440794B2, “Peptide sequences, their branched form and use thereof for antimicrobial applications” (Universita' Degli Studi di Siena, priority 2008, dated 2013)
